Tests used:
[1] = test system: adult subjects with relapsing MS; test: Fatigue-related symptoms, FSIQ-RMS weekly symptoms score, change from baseline to Week 108; type: in vivo, human
Protocol: (§1) In some embodiments, the patient-reported outcome questionnaire is the symptom domain of the FSIQ-RMS. The FSIQ-RMS symptom domain (FSIQ-RMS-S) consists of seven items assessing fatigue-related symptoms with a recall period of 24 hours measured on an 11-point numeric rating scale; the standardized symptom domain score ranges from 0 to 100 with a higher score indicating greater fatigue. This domain (i.e., section 1 of the questionnaire) is completed on 7 consecutive days.
The patient-reported outcome questionnaire used for the below Examples is the Fatigue Symptoms and Impact Questionnaire—Relapsing Multiple Sclerosis (FSIQ-RMS). The FSIQ-RMS is an MS specific 20-item PRO measure that comprises 2 domains: one measuring MS symptoms (7 items) and one measuring MS-related impacts (13 items). The 7 symptom items and 13 impact items (in 3 impacts subdomains: physical, cognitive and emotional, and coping) are presented below.
For the MS symptoms domain, the FSIQ-RMS asks about a patient's fatigue-related symptoms of relapsing MS over the past 24 hours while doing routine daily activities (e.g., housework, yard work, shopping, working, etc.) for Items 1-6 or while at rest (e.g., reading a book, watching TV, etc.) for Item 7. Patients are asked to select a response on a scale of 0 to 10 that best describes their experience and are asked to not skip any questions, with no answers being right or wrong.
Secondary efficacy variables and testing strategy: Four secondary efficacy endpoints were analyzed as per the statistical testing strategy outlined in FIG. 1. • Change from baseline to Week 108 in fatigue-related symptoms as measured by the symptoms domain of the FSIQ-RMS patient-reported outcome [Fatigue] • Cumulative number of combined unique active lesions from baseline to Week 108 on brain MRI [CUALs] • Time to first 12-week confirmed disability accumulation (CDA) from baseline to EOS on Expanded Disability Status Scale (EDSS) [12-week CDA] • Time to first 24-week CDA from baseline to EOS on EDSS [24-week CDA]
as §1, with “The” for “In some embodiments, the patient-reported outcome questionnaire is the symptom domain of the FSIQ-RMS. The”
FSIQ-RMS was completed during the pre-randomization period, at Visits 6, 7, 10, and 12 (Weeks 12, 24, 60, 84), 14 (EOT), and at unscheduled visits due to relapses (R1, R2, etc.) or other unscheduled visits (U1, U2, etc.) as described below. If applicable, FSIQ-RMS was performed at the corresponding visits in the PTOP.
After randomization, the symptoms domain of the FSIQ-RMS (i.e., section 1 of the questionnaire) was completed by the subject at home on a daily basis, starting in the evening of the day of a visit when the FSIQ-RMS was administered (Day 1 of questionnaire administration cycle) and during the 6 subsequent days (i.e., over 7 days in total). Subjects returned the completed FSIQ-RMS diary at the next scheduled visit. On the seventh day, the subject completed the impact domain of the FSIQ-RMS (i.e., section 2 of the questionnaire). If applicable, at the end of the PTOP, the FSIQ-RMS was completed prior to Visit 14A (Week 108), ideally, during the 7 consecutive days preceding the visit.

[2] = Pharmacokinetics in hepatic impairment (Child-Pugh class A, B, C); type: in vivo, human
mice = test: Carcinogenesis, mice, oral up to 2 years; type: in vivo, mouse
Protocol: Plasma exposure (AUC) at to lowest dose tested in males (50 mg/kg/day) was approximately 5 times that in humans at the recommended human dose (RHD) of 20 mg.

[3] = Excretion after single oral administration of 14C-ponesimod; type: in vivo, human; settings: single oral 14C-ponesimod
Source text: Following a single oral administration of ^14C-ponesimod, 57% to 80% of the dose was recovered in feces (16% as unchanged ponesimod), and 10% to 18% in urine (no unchanged ponesimod).

pregnant rats = test: Embryofetal development study in pregnant rats, oral; type: in vivo
Source text: Maternal toxicity was not observed, indicating a selective effect on the fetus.

pregnant rabbits = test: Dose-range finding study in pregnant rabbits, oral; type: in vivo, rabbit; settings: 0, 6, 20, or 60 mg/kg/day; at lowest dose tested
Source text: No maternal toxicity was observed.

clinical = settings: human, in vivo
Protocol: Steady-state levels are approximately 2.0 to 2.6-fold greater than with a single dose, and are achieved following 3 days of administration of the maintenance dose of ponesimod.
The pharmacokinetics of ponesimod are similar in healthy subjects and patients with multiple sclerosis, with 25% inter-subject variability across studies.
The time to reach maximum plasma concentration of ponesimod is 2-4 hours post-dose.
Following IV administration in healthy subjects, the steady-state volume of distribution of ponesimod is 160 L.

[4] = Week 108, baseline EDSS <3.5 (title: ≤3.5)
[5] = Week 108, baseline fatigue below the median
[6] = Week 108, no Gd+ T1 lesions at baseline
[7] = Week 108, no prior DMT treatment

In the case of CCC/N=C1\S/C(=C\c2ccc(OC[C@H](O)CO)c(Cl)c2)C(=O)N1c1ccccc1C [Ponesimod, (R)-5-[3-chloro-4-(2,3-dihydroxy-propoxy)-benz[Z]ylidene]-2-([Z]-propylimino)-3-o-tolyl-thiazolidin-4-one], the “FSIQ-RMS change from baseline to Week 108, mean difference ponesimod vs teriflunomide” value ([1]; Full Analysis Set) is reported as −3.57, the “Change from baseline to Week 108 in FSIQ-RMS weekly symptoms score (mean, MMRM)” value ([1]; Full Analysis Set, increase = worsening) is reported as −0.01 and the “Change in FSIQ-RMS-S total score: Improved (<−6.3), patients” value ([1]; Week 108, Full Analysis Set) is reported as 30.5%. The “Change in FSIQ-RMS-S total score: Stable (−6.3 < × < +6.3), patients” value ([1]; Week 108, Full Analysis Set) was 38.4%, the “Change in FSIQ-RMS-S total score: Stable or Improved, patients” value ([1]; Week 108, Full Analysis Set) was 68.9% and the “Change in FSIQ-RMS-S total score: Worsened (≥6.3), patients” value ([1]; Week 108, Full Analysis Set) was 31.1%. For the same compound, the “FSIQ-RMS change: Improved (<−6.3), patients” value (“FSIQ-RMS change: Improved” below) [1, 4] was 30.6%, the “FSIQ-RMS change: Stable (−6.3 < × < +6.3), patients” value [1, 4] was 40.8% and the “FSIQ-RMS change: Stable or Improved, patients” value [1, 4] was 71.4%. The “FSIQ-RMS change: Worsened (≥6.3), patients” value (from here on “FSIQ-RMS change: Worsened”) [1, 4] was 28.6%, the “FSIQ-RMS change: Improved” value [1, 5] was 19.1% and the “FSIQ-RMS change: Stable (−6.3 < × < +6.3), patients” value [1, 5] was 45.2%. The “FSIQ-RMS change: Stable or Improved, patients” value [1, 5] was 64.4%, the “FSIQ-RMS change: Worsened” value [1, 5] was 35.6% and the “FSIQ-RMS change: Stable (−6.3 < × < +6.3), patients” value [1, 6] was 37.4%. The “FSIQ-RMS change: Stable or Improved, patients” value [1, 6] was 67.5%, the “FSIQ-RMS change: Worsened” value [1, 6] was 32.5% and the “FSIQ-RMS change: Improved” value [1, 7] was 31.4%. For the same compound, the “FSIQ-RMS change: Stable (−6.3 < × < +6.3), patients” value [1, 7] was 44.0%, the “FSIQ-RMS change: Stable or Improved, patients” value [1, 7] was 75.4% and the “FSIQ-RMS change: Worsened” value [1, 7] was 24.6%. For the same compound, the “FSIQ-RMS change: Improved” value ([1]; Week 108, no prior DMT treatment, listed as ponesimod) was 31.4%, the “Increase of AUC0-∞ vs healthy subjects” value ([2]; mild hepatic impairment (Child-Pugh A)) was 1.3 fold and the “Change in Cmax vs healthy subjects” value ([2]; mild, moderate, or severe hepatic impairment) was “no change”. For the same compound, the “Increase of AUC0-∞ vs healthy subjects” value ([2]; moderate hepatic impairment (Child-Pugh B)) was 2.0 fold, the “Increase of AUC0-∞ vs healthy subjects” value ([2]; severe hepatic impairment (Child-Pugh C)) was 3.1 fold and the “Carcinogenicity findings in mice” value (mice; males all doses (50, 150, 400 mg/kg/day), females highest dose (300 mg/kg/day)) was “incidences in hemangiosarcoma and combined hemangioma and hemangiosarcoma”. The “Plasma exposure (AUC) at lowest dose in male mice (50 mg/kg/day) relative to humans at RHD” value (mice; mouse, in vivo) was “approximately 5 times”, the “Dose recovered in feces as unchanged ponesimod” value [3] was 16% and the “Embryofetal findings in rats” value (pregnant rats; 0, 1, 10, or 40 mg/kg/day oral during organogenesis, at all but the lowest dose) was “increased incidences of fetal malformations”. The “No-effect dose for adverse effects on embryofetal development in rats” value (pregnant rats; rat, in vivo) was 1 mg/kg/day, the “Plasma exposure (AUC) at no-effect dose vs humans at RHD 20 mg/day” value (pregnant rats; rats) was “lower than that in humans” and the “Findings in dose-range finding study in pregnant rabbits” value (pregnant rabbits) was “an increase in embryofetal death and fetal limb malformation”. For the same compound, the “Effect of food on pharmacokinetics” value (clinical) was “does not have a clinically relevant effect”, the “Influence of age (range: 17 to 65 years) on PK” value (clinical) was “not identified to significantly influence” and the “Influence of gender on pharmacokinetics” value (clinical) was “no clinically significant influence”. For the same compound, the “Inter-subject variability of pharmacokinetics across studies” value (clinical) was 25%, the “Pharmacokinetic differences between Japanese and Caucasian subjects” value (clinical) was “No clinically relevant pharmacokinetic differences” and the “Time to steady state on maintenance dose” value (clinical) was 3 days. The clearance (clinical; iv) was 63.3 mL/min, the “Increase of Cmax and AUC with dose” value (clinical; po) was “approximately dose-proportionally” and the “Steady-state levels relative to a single dose” value (clinical; po) was 2.0-2.6 fold. For the same compound, the “Time to reach maximum plasma concentration” value (clinical; po) was 2 to 4 h, the half-life (clinical; po) was about 33 h and the bioavailability (clinical; po, 10 mg) was 84%.

From US12419869B2, “Methods of treating multiple sclerosis” (Vanda Pharmaceuticals Inc., priority 2021, dated 2025)
